These results are taken from patent publication US20240309090A1, “MODULATION OF ANDROGEN SIGNALING TO INNATE IMMUNE KILLING OF PROSTATE CANCER” (Brown University, priority 2023, published 2024).

Molecules are shown by their SMILES.

The test system of series [1] is PC3. As to the kind of experiment: Co-culture of PC3 with NK-92 cells, immune-mediated tumor cell killing. In kind it is cell-based. To be noted: PC3 + NK-92 1:1, 24 hours. How it is done: (§1) They were co-treated with enzalutamide ([…]) or darolutamide (20 μM) for 48 h. Doses of AR inhibitors (ARi) used in the co-culture experiments were based on previous IC50 experiments. […] The immune-mediated effect of NK-92 on the PCa cell lines in the presence of enzalutamide (immune enhancement death) was normalized to baseline immune and tumor cell killing in each condition [(tumor cells+immune cells)-tumor baseline death=baseline immune death]. […] Cytokine analysis was performed to investigate the activation phenotype of NK cells when treated with ARi.
(§2) Prostate cancer cell lines were dyed with the blue CMAC live-cell dye (Thermo Fisher Scientific #C2110, per manufacturer protocol). […] Cell adhered over 24 h, and when patient-derived NK cells were added, a control well was trypsinized, and cells resuspended and counted to adjust a 1:1 ratio before treatment addition. […]
(§3) Live cancer cells, NK cells, and dead cells were quantified using FIJI (Fiji Is Just ImageJ) software for images derived from fluorescent co-culture images. Images from the ImageXpress system were quantified using MetaXpress cytoplasmic/nuclear staining software. The percent of dead tumor cells in each well was quantified, and this percentage was normalized by subtracting baseline death from cancer cell-only wells, NK cell-only wells, or both.

Series [2] has as its system PC3. As to the kind of experiment: Co-culture of GFP-expressing PC3 with patient-derived NK cells. The note with it: GFP PC3, 1:1, 24 h; monalizumab in combination with enza and daro. It is filed as cell-based, human. From the text: To validate an additive effect of ARi and monalizumab enhancing NK cell cytotoxicity, we performed a co-culture assay with GFP-labeled PCa cell lines (including ARi-sensitive LNCaP and ARi-resistant PC3) and patient-derived NK cells. The NK cells were negatively selected from whole blood from patients with metastatic prostate cancer before initiation of androgen deprivation therapy. The addition of enzalutamide or darolutamide enhanced the cytotoxicity of NK cells, and the combination of ARi with monalizumab potentiated immune killing (FIG. 15C-D).
Prostate cancer cell lines were dyed with the blue CMAC live-cell dye (Thermo Fisher Scientific #C2110, per manufacturer protocol). Blue-fluorescent cancer cells were plated at a density of 10,000 cells per well of a 48-well plate. NK-92 cells were dyed with green CMFDA (Cayman Chemical Company #19583, per manufacturer protocol). Green-fluorescent NK-92 cells were added to the blue-fluorescent cancer cells at a 1:1 ratio. Enzalutamide (10 μM), darolutamide (20 μM), and 1 μM ethidium homodimer (EthD-1) were added at the same time as the NK cells. After 24 hours of co-culture, images of live cancer cells, live NK cells, and dead cells were taken using a fluorescent microscope. The co-culture experiments were run with internal control conditions and as a single treatment. Normalization was performed after analysis to take baseline death conditions into each experiment run. To optimize the high output of these experiments, a subset of co-cultures were performed using the ImageXpress® Micro Confocal High-Content Imaging. This analysis maintained the experiment conditions, drug concentrations, and the dyeing process. When GFP-labeled tumor cells were used for culture assays, they were added in a 1:1 ratio. Cell adhered over 24 h, and when patient-derived NK cells were added, a control well was trypsinized, and cells resuspended and counted to adjust a 1:1 ratio before treatment addition. The experiments with blocking antibodies were performed using the ImageXpress system. TRAIL blocking ab was purchased from Santa Cruz TRAIL Antibody (RIK-2): sc-56246, and IFN gamma blocking Monoclonal Antibody (NIB42, #6-7318-81) was purchased from Thermo Fisher. The blocking mAb was added when NK cells were combined with tumor cells.
NK cells were isolated from patients harboring metastatic castration-sensitive prostate cancer using the MojoSort™ Human NK Cell Isolation Kit (#480053). Patients signed informed consent for IRB-approved research protocol number 2055-13, allowing the collection of peripheral blood samples. […] The untouched NK cells (CD56+, CD3−) were collected, and the purity of isolation was determined by flow cytometry using anti-CD56 (BioLegend 362503). […]

In the next series the test system is DU145. As to the kind of experiment: Co-culture of DU145 with NK-92 cells, immune-mediated tumor cell killing. In kind it is cell-based. To be noted: DU145 + NK-92 1:1, 24 hours. How it is done:
as §1, §2, §3

For series [3], the system named is NK-92 cells. Nature of the series: NK cell viability assay (CellTiterGlo). It is filed as cell-based. To be noted: NK cells alone, doses used in co-culture.
Procedure: For NK cell viability assays, 5×10^3 cells were plated in a 96-well plate, and viability (72h) was measured using a CellTiterGlo assay.
The test system of series [4] is NK-92 cells. As to the kind of experiment: Cytokine secretion of NK-92 monoculture (Luminex 200). In kind it is cell-based. To be noted: for NK-92 secretion of T cell chemokine CCL5: FIG. 13A (A6); for NK-92 cell secretion of IFN-γ / NK-92 cell secretion of IL-10 / NK-92 cell secretion of granzyme B: monoculture, DHT for 72 h before treatment, supernatant. How it is done: The secretion profile was assessed in monoculture conditions without the PCa cell lines.
The medium was collected 24 hours after treatment and stored at −80° C. until readout. Samples were shipped to Brown University to run them in biological duplicate on a Luminex 200 Instrument (R&D LX200-XPON-RUO), which captures cytokines on magnetic antibody-coated beads and measures cytokine levels using a system based on the principles of flow cytometry (see https:/www.luminexcorp.com/luminex-100200/#overviewfor more information). A custom […] panel was split into 34-plex and 18-plex assays (R&D LXSAHM) and was run on the Luminex 200 instrument according to the manufacturer's protocol.

Regarding `CNC(=O)c1ccc(N2C(=S)N(c3ccc(C#N)c(C(F)(F)F)c3)C(=O)C2(C)C)cc1F` [enzalutamide], the “cell death rate (NK cell-mediated tumor killing)” value in the series on PC3 [1] was found to be 11.05±4.6%. Besides, the “killing of PCa cells by patient-derived NK cells (in words)” value in the series with PC3 [2] was “enhanced”. Further, in the series with DU145, the “cell death rate (NK cell-mediated tumor killing)” value worked out at 34.8±4.92%. Besides, the NK cell viability entry with NK-92 cells [3] is “noncytotoxic”. Further, in the series with NK-92 cells [4], the “NK-92 secretion of T cell chemokine CCL5” value is recorded as “reduces”, the “NK-92 cell secretion of IFN-γ” value was found to be 48.88 pg/mL, the “NK-92 cell secretion of IL-10” value was 16.6 pg/mL and the “NK-92 cell secretion of granzyme B” value was 1027 pg/mL.
`CC(O)c1cc(C(=O)N[C@@H](C)Cn2ccc(-c3ccc(C#N)c(Cl)c3)n2)n[nH]1` (stereo partly shown) [darolutamide]: in the series on PC3 [2], the “killing of PCa cells by patient-derived NK cells (in words)” value is “enhanced”. In addition, in the series with NK-92 cells [4], the “NK-92 secretion of T cell chemokine CCL5” value is “reduces”, the “NK-92 cell secretion of IFN-γ” value is 45.6 pg/mL, the “NK-92 cell secretion of IL-10” value turned out to be 15.24 pg/mL and the “NK-92 cell secretion of granzyme B” value is 1599 pg/mL.
